Inconclusive results and toxic doses are left out. Rule as the data show it: active = T/C of 150% or more; inactive = T/C below 125%.
Test system: L1210 leukemia ip in BDF1 mice, survival T/C
Assay: NCI In Vivo Anticancer Drug Screen. Data for tumor model L1210 Leukemia (intraperitoneal) in B6D2F1 (BDF1) mice
Details: endpoint: mean survival time, higher = longer survival
Summary of the method: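 Read-out is survival time, reported as the treated-group measurement over the vehicle-control measurement.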

[1] = dose: 12.5 mg/kg/injection, schedule: Q01DX009 (ip), vehicle: Klucel (hydroxypropylcellulose) (HPC)
[2] = dose: 25.0 mg/kg/injection, schedule: Q01DX009 (ip), vehicle: Klucel (hydroxypropylcellulose) (HPC)
[3] = dose: 100.0 mg/kg/injection, schedule: Q04DX002 (ip), vehicle: Klucel (hydroxypropylcellulose) (HPC)
[4] = dose: 200.0 mg/kg/injection, schedule: Q04DX002 (ip), vehicle: Klucel (hydroxypropylcellulose) (HPC)
[5] = dose: 100.0 mg/kg/injection, schedule: Q04DX003 (ip), vehicle: saline with Tween-80
[6] = dose: 200.0 mg/kg/injection, schedule: Q04DX003 (ip), vehicle: saline with Tween-80
[7] = dose: 400.0 mg/kg/injection, schedule: Q04DX003 (ip), vehicle: saline with Tween-80
[8] = dose: 50.0 mg/kg/injection, schedule: Q01DX009 (ip), vehicle: saline
[9] = dose: 100.0 mg/kg/injection, schedule: Q01DX009 (ip), vehicle: saline
[10] = dose: 100.0 mg/kg/injection, schedule: Q04DX003 (ip), vehicle: saline
[11] = dose: 200.0 mg/kg/injection, schedule: Q01DX009 (ip), vehicle: saline
[12] = dose: 200.0 mg/kg/injection, schedule: Q04DX003 (ip), vehicle: saline
[13] = dose: 100.0 mg/kg/injection, schedule: Q04DX003 (ip), vehicle: Klucel (hydroxypropylcellulose) (HPC)
[14] = dose: 200.0 mg/kg/injection, schedule: Q04DX003 (ip), vehicle: Klucel (hydroxypropylcellulose) (HPC)
[15] = dose: 400.0 mg/kg/injection, schedule: Q04DX003 (ip), vehicle: Klucel (hydroxypropylcellulose) (HPC)
[16] = dose: 400.0 mg/kg/injection, schedule: Q01DX009 (ip), vehicle: saline

Measured: T/C

CCCCCCCCCCCc1nc(N)nc(NCCc2ccccc2)n1
inactive: [1] 95 % of control | [2] 89 % of control | dose: 50.0 mg/kg/injection, schedule: Q04DX002 (ip), vehicle: Klucel (hydroxypropylcellulose) (HPC) 87 % of control | [3] 93 % of control | [4] 97 % of control

CN(C)c1ccc(C=C(c2ccc(N)cc2)c2ccc(N)cc2)cc1
inactive: [5] 93 % of control | [6] 96 % of control | [7] 96 % of control

CCSC1OC(C(COC(C)=O)OC(C)=O)C(OC(C)=O)C1NC(=O)OCc1ccccc1 (stereo unspecified)
inactive: dose: 50.0 mg/kg/injection, schedule: Q01DX001 (ip), vehicle: saline 100 % of control | dose: 100.0 mg/kg/injection, schedule: Q01DX001 (ip), vehicle: saline 97 % of control | dose: 200.0 mg/kg/injection, schedule: Q01DX001 (ip), vehicle: saline 97 % of control | dose: 400.0 mg/kg/injection, schedule: Q01DX001 (ip), vehicle: saline 91 % of control

Nc1ccc(OC(=O)Nc2ccc(O)cc2)cc1
inactive: dose: 53.0 mg/kg/injection, schedule: Q01DX Z (ip), vehicle: other 94 % of control | dose: 80.0 mg/kg/injection, schedule: Q01DX Z (ip), vehicle: other 97 % of control | dose: 80.0 mg/kg/injection, schedule: Q01DX Z (ip), vehicle: saline 89 % of control | dose: 120.0 mg/kg/injection, schedule: Q01DX Z (ip), vehicle: other 105 % of control | dose: 180.0 mg/kg/injection, schedule: Q01DX Z (ip), vehicle: other 100 % of control | dose: 180.0 mg/kg/injection, schedule: Q01DX Z (ip), vehicle: saline 92 % of control | dose: 270.0 mg/kg/injection, schedule: Q01DX Z (ip), vehicle: other 102 % of control | dose: 270.0 mg/kg/injection, schedule: Q01DX Z (ip), vehicle: saline 93 % of control | dose: 404.0 mg/kg/injection, schedule: Q01DX Z (ip), vehicle: other 100 % of control | dose: 405.0 mg/kg/injection, schedule: Q01DX Z (ip), vehicle: saline 92 % of control

CNC(=O)N(c1ccccc1)C1CCCCC1
inactive: [8] 112 % of control | [9] 103 % of control | [10] 104 % of control | [11] 103 % of control | [12] 97 % of control

OC(c1cc2ccc(C(F)(F)F)cc2c2cc(C(F)(F)F)ccc12)C1CCCCN1 (stereo unspecified)
inactive: dose: 12.5 mg/kg/injection, schedule: Q01DX009 (ip), vehicle: saline 93 % of control | dose: 25.0 mg/kg/injection, schedule: Q01DX009 (ip), vehicle: saline 103 % of control | [8] 108 % of control

CCCCCC/C=N\N=C(N)N
inactive: dose: 15.0 mg/kg/injection, schedule: Q01DX Z (ip), vehicle: saline 97 % of control | dose: 30.0 mg/kg/injection, schedule: Q01DX Z (ip), vehicle: saline 97 % of control | dose: 60.0 mg/kg/injection, schedule: Q01DX Z (ip), vehicle: saline 102 % of control | dose: 60.0 mg/kg/injection, schedule: Q01DX Z (oral), vehicle: saline 100 % of control | dose: 120.0 mg/kg/injection, schedule: Q01DX Z (ip), vehicle: saline 88 % of control | dose: 120.0 mg/kg/injection, schedule: Q01DX Z (oral), vehicle: saline 98 % of control | dose: 240.0 mg/kg/injection, schedule: Q01DX Z (oral), vehicle: saline 91 % of control | dose: 480.0 mg/kg/injection, schedule: Q01DX Z (oral), vehicle: saline 98 % of control

CC(C)CCCC(C)CCC1=C(O)c2ccccc2C(=O)C1=O (stereo unspecified)
inactive: dose: 100.0 mg/kg/injection, schedule: Q01DX001 (ip), vehicle: Klucel (hydroxypropylcellulose) (HPC) 102 % of control | [13] 101 % of control | dose: 200.0 mg/kg/injection, schedule: Q01DX001 (ip), vehicle: Klucel (hydroxypropylcellulose) (HPC) 98 % of control | [14] 97 % of control | dose: 400.0 mg/kg/injection, schedule: Q01DX001 (ip), vehicle: Klucel (hydroxypropylcellulose) (HPC) 100 % of control | [15] 97 % of control

Br[C](Br)(Br)[Hg][c]1ccccc1
inactive: dose: 6.0 mg/kg/injection, schedule: Q01DX009 (ip), vehicle: Klucel (hydroxypropylcellulose) (HPC) 98 % of control | [1] 93 % of control | dose: 12.5 mg/kg/injection, schedule: Q04DX003 (ip), vehicle: Klucel (hydroxypropylcellulose) (HPC) 110 % of control | [2] 87 % of control | dose: 25.0 mg/kg/injection, schedule: Q04DX003 (ip), vehicle: Klucel (hydroxypropylcellulose) (HPC) 95 % of control

CC(=O)NC1CCCC(O)C1 (stereo unspecified)
inactive: [9] 87 % of control | [11] 92 % of control | [16] 92 % of control

CC(C)(C)S(=O)(=O)CCS(=O)(=O)C(C)(C)C
inactive: [9] 100 % of control | [3] 104 % of control | dose: 100.0 mg/kg/injection, schedule: Q04DX002 (ip), vehicle: saline with Tween-80 97 % of control | [11] 100 % of control | [4] 97 % of control | dose: 200.0 mg/kg/injection, schedule: Q04DX002 (ip), vehicle: saline with Tween-80 94 % of control | [16] 107 % of control | dose: 400.0 mg/kg/injection, schedule: Q04DX002 (ip), vehicle: Klucel (hydroxypropylcellulose) (HPC) 104 % of control | dose: 400.0 mg/kg/injection, schedule: Q04DX002 (ip), vehicle: saline with Tween-80 90 % of control

Cc1cc(N)c(C)c2ccncc12
inactive: dose: 5.0 mg/kg/injection, schedule: Q01DX001 (ip), vehicle: saline 103 % of control

CCOC(=O)/C(C#N)=C\c1cc(=O)c(OC)co1
inactive: [10] 98 % of control | [12] 104 % of control | dose: 400.0 mg/kg/injection, schedule: Q04DX003 (ip), vehicle: saline 102 % of control

Cc1ccc(C)c(OCC(=O)O)c1
inactive: [13] 97 % of control | [14] 101 % of control | [15] 101 % of control

Cc1noc2nc(Cl)cnc12
inactive: dose: 100.0 mg/kg/injection, schedule: Q01DX009 (ip), vehicle: saline with Tween-80 109 % of control | [5] 94 % of control | dose: 200.0 mg/kg/injection, schedule: Q01DX009 (ip), vehicle: saline with Tween-80 110 % of control | [6] 102 % of control | dose: 400.0 mg/kg/injection, schedule: Q01DX009 (ip), vehicle: saline with Tween-80 104 % of control | [7] 94 % of control

CCCCN(CCCC)CCCCCN
inactive: dose: 25.0 mg/kg/injection, schedule: Q01DX Z (ip), vehicle: carboxymethylcellulose (CMC) 106 % of control | dose: 50.0 mg/kg/injection, schedule: Q01DX Z (ip), vehicle: carboxymethylcellulose (CMC) 86 % of control | dose: 100.0 mg/kg/injection, schedule: Q01DX Z (ip), vehicle: carboxymethylcellulose (CMC) 90 % of control

O=[N+]([O-])c1ccc(OC(=S)Cl)cc1
inactive: dose: 6.25 mg/kg/injection, schedule: Q04DX002 (ip), vehicle: saline with Tween-80 99 % of control | dose: 12.5 mg/kg/injection, schedule: Q04DX002 (ip), vehicle: saline with Tween-80 101 % of control | dose: 25.0 mg/kg/injection, schedule: Q04DX002 (ip), vehicle: saline with Tween-80 96 % of control | [5] 103 % of control

— PubChem BioAssay AID248 (DTP/NCI, 2004)
